Test results from patent US5541183A, “Ginkgolide derivatives” (priority 1993, dated 1996).

Test system: PAF-induced rabbit platelet aggregation
Experiment: PAF-induced rabbit platelet aggregation
Assay type: cell-based, rabbit (New Zealand white)
Conditions: Oryctolagus cuniculus, rabbit PRP, PAF 5×10^-9 M, read-out: IC50, inhibition of PAF-induced rabbit platelet aggregation
Description: Pharmacology Example 1: PAF-induced rabbit platelet aggregation
Blood was collected from the ear artery of a male New Zealand white rabbit and mixed with 3.8% sodium citrate in a 9:1 volume ratio. Platelet rich plasma (PRP) was obtained by centrifugation of the blood at 150 g for 10 min at room temperature. The number of platelets was adjusted to 3×10^8 platelets/ml with platelet poor plasma. Platelet aggregation was monitored by continuous recording of light transmission in a dual-channel aggregometer (Chrono-Log 560-VS) coupled with a two channel recorder (Chrono-Log 707). Stirred PRP was treated with various concentrations of the test compounds or vehicle (0.5% DMSO) for 2 min and then PAF(5×10^-9 M) was added to induce platelet aggregation.
Inhibition values were calculated by comparing the extent of aggregation obtained in the presence of the vehicle alone (0.5% DMSO) and in the presence of a test compound. Log concentration-response curves were generated and the IC50 values were determined by regression analysis.
Table 1 lists results from this assay for inhibition of PAF-induced rabbit platelet aggregation for illustrative examples of the compounds of this invention.

Row | Compound | IC50 [nM]
1 | COc1cc(COC2C(=O)OC3OC45C(=O)OC6CC(C(C)(C)C)C32C64C(O)C2OC(=O)C(C)C25O)cc(OC)c1OC (stereo not drawn) [Example 15, 10-(3',4',5'-trimethoxybenzyloxy)-Ginkgolide B] | 62.1
2 | CC1C(=O)OC2C(O)C34C5CC(C(C)(C)C)C36C(OC(=O)C6OCc3cc(C(C)(C)C)c(O)c(C(C)(C)C)c3)OC4(C(=O)O5)C12O (stereo not drawn) [Example 31] | 78.1
3 | COc1cc(C(=O)OC2C(=O)OC3OC45C(=O)OC6CC(C(C)(C)C)C32C64C(O)C2OC(=O)C(C)C25O)cc(OC)c1OC (stereo not drawn) [Example 80, 10-(3',4'.5'-trimethoxybenzoyloxy)-Ginkgolide B] | 114
4 | CC1C(=O)OC2C(OCc3ccc(Cl)cc3Cl)C34C5CC(C(C)(C)C)C36C(OC(=O)C6OCc3ccc(Cl)cc3Cl)OC4(C(=O)O5)C12O (stereo not drawn) [Example 92, 1,10-bis(2',4'-dichlorobenzyloxy)-Ginkgolide B] | 102
5 | CC1C(=O)OC2C(OCc3ccc(C(F)(F)F)cc3)C34C5CC(C(C)(C)C)C36C(OC(=O)C6OCc3ccc(C(F)(F)F)cc3)OC4(C(=O)O5)C12O (stereo not drawn) [Example 95] | 87.1
6 | Cc1cnc(COC2C(=O)OC3OC45C(=O)OC6CC(C(C)(C)C)C32C64C(O)C2OC(=O)C(C)C25O)c(C)c1[N+](=O)[O-] (stereo not drawn) [Example 98, 10-(3,5-dimethyl-4-nitro-2-pyridinyl)-methoxy-Ginkgolide B] | 131
7 | Cc1cnc(COC2C(=O)OC3OC45C(=O)OC6CC(C(C)(C)C)C32C64C(O)C2OC(=O)C(C)C25O)c(C)c1NO (stereo not drawn) [Example 104, 10-(3,5-dimethyl-4-hydroxyamino-2-pyridinyl)-methoxy-Ginkgolide B] | 110

The next lines start with the values.

Row | IC50 [nM] | Compound
8 | 68.8 | CC1C(=O)OC2C(O)C34C5CC(C(C)(C)C)C36C(OC(=O)C6OCc3ccccc3)OC4(C(=O)O5)C12O (stereo not drawn) [Example 1, 10-benzyloxy-Ginkgolide B]
9 | 72.1 | CC1C(=O)OC2C(O)C34C5CC(C(C)(C)C)C36C(OC(=O)C6OCc3ccc(Cl)cc3Cl)OC4(C(=O)O5)C12O (stereo not drawn) [Example 2, 10-(2',4'-dichlorobenzyloxy)-Ginkgolide B]
10 | 94.7 | CC1C(=O)OC2C(O)C34C5CC(C(C)(C)C)C36C(OC(=O)C6OCc3ccc(Cl)cc3)OC4(C(=O)O5)C12O (stereo not drawn) [Example 3, 10-(4'-chlorobenzyloxy)-Ginkgolide B]
11 | 101 | CC1C(=O)OC2C(O)C34C5CC(C(C)(C)C)C36C(OC(=O)C6OCc3ccc(Cl)c(Cl)c3)OC4(C(=O)O5)C12O (stereo not drawn) [Example 11]
12 | 85.8 | COc1ccc(COC2C(=O)OC3OC45C(=O)OC6CC(C(C)(C)C)C32C64C(O)C2OC(=O)C(C)C25O)cc1 (stereo not drawn) [Example 14, 10-(4'-methoxybenzyloxy)-Ginkgolide B]
13 | 57.1 | CC1C(=O)OC2C(O)C34C5CC(C(C)(C)C)C36C(OC(=O)C6OCc3ccc(O)cc3)OC4(C(=O)O5)C12O (stereo not drawn) [Example 25]
14 | 62.1 | Cc1cc(COC2C(=O)OC3OC45C(=O)OC6CC(C(C)(C)C)C32C64C(O)C2OC(=O)C(C)C25O)cc(C)c1O (stereo not drawn) [Example 27]
15 | 37.1 | COc1cc(COC2C(=O)OC3OC45C(=O)OC6CC(C(C)(C)C)C32C64C(O)C2OC(=O)C(C)C25O)ccc1O (stereo not drawn) [Example 28]
16 | 65.1 | COc1cc(COC2C(=O)OC3OC45C(=O)OC6CC(C(C)(C)C)C32C64C(O)C2OC(=O)C(C)C25O)cc(OC)c1O (stereo not drawn) [Example 32]
17 | 101 | Cc1cc(COC2C(=O)OC3OC45C(=O)OC6CC(C(C)(C)C)C32C64C(O)C2OC(=O)C(C)C25O)cc(N)c1O (stereo not drawn) [Example 35]
18 | 74.1 | Cc1ccccc1COC1C(=O)OC2OC34C(=O)OC5CC(C(C)(C)C)C21C53C(O)C1OC(=O)C(C)C14O (stereo not drawn) [Example 41, 10-(2'-methylbenzyloxy)-Ginkgolide B]
19 | 44.3 | Cc1ccccc1COC1C(=O)OC2OC34C(=O)OC5CC(C(C)(C)C)C21C53C(OCc1ccccc1C)C1OC(=O)C(C)C14O (stereo not drawn) [Example 42, 1,10-bis(2'-methylbenzyloxy)-Ginkgolide B]
20 | 46.7 | Cc1ccc(COC2C(=O)OC3OC45C(=O)OC6CC(C(C)(C)C)C32C64C(O)C2OC(=O)C(C)C25O)cc1 (stereo not drawn) [Example 43, 10-(4'-methylbenzyloxy)-Ginkgolide B]
21 | 159 | CC1C(=O)OC2C(O)C34C5CC(C(C)(C)C)C36C(OC(=O)C6OCCCOc3ccccc3)OC4(C(=O)O5)C12O (stereo not drawn) [Example 78, 10-(3'-phenoxypropoxy)-Ginkgolide B]
22 | 117 | CC1C(=O)OC2C(O)C34C5CC(C(C)(C)C)C36C(OC(=O)C6OCCc3ccccc3)OC4(C(=O)O5)C12O (stereo not drawn) [Example 79, 10-(2'-phenylethoxy)-Ginkgolide B]
23 | 52.1 | CC1C(=O)OC2C(O)C34C5CC(C(C)(C)C)C36C(OC(=O)C6OCc3ccc(-c6ccccc6)cc3)OC4(C(=O)O5)C12O (stereo not drawn) [Example 81, 10-(4'-phenylbenzyloxy)-Ginkgolide B]
24 | 68 | CC1C(=O)OC2C(O)C34C5CC(C(C)(C)C)C36C(OC(=O)C6OCc3cccc(F)c3)OC4(C(=O)O5)C12O (stereo not drawn) [Example 84, 10-(3'-fluorobenzyloxy)-Ginkgolide B]
25 | 32.1 | CC1C(=O)OC2C(O)C34C5CC(C(C)(C)C)C36C(OC(=O)C6OCc3ccc(F)cc3)OC4(C(=O)O5)C12O (stereo not drawn) [Example 85, 10-(4'-fluorobenzyloxy)-Ginkgolide B]
26 | 62.1 | CC1C(=O)OC2C(OC(=O)c3ccccc3)C34C5CC(C(C)(C)C)C36C(OC(=O)C6O)OC4(C(=O)O5)C12O (stereo not drawn) [Example 89, 1-benzoyloxy-Ginkgolide B]
27 | 82.1 | CC1C(=O)OC2C(O)C34C5CC(C(C)(C)C)C36C(OC(=O)C6OS(=O)(=O)c3ccccc3)OC4(C(=O)O5)C12O (stereo not drawn) [Example 90, 10-benzenesulfonyloxy-Ginkgolide B]
28 | 93.1 | COc1cccc(COC2C(=O)OC3OC45C(=O)OC6CC(C(C)(C)C)C32C64C(O)C2OC(=O)C(C)C25O)c1 (stereo not drawn) [Example 91, 10-(3'-methoxybenzyloxy)-Ginkgolide B]
29 | 73.1 | CC1C(=O)OC2C(O)C34C5CC(C(C)(C)C)C36C(OC(=O)C6OCc3cccc(C(F)(F)F)c3)OC4(C(=O)O5)C12O (stereo not drawn) [Example 93, 10-(3'-trifiuoromethylbenzyloxy)-Ginkgolide B]
30 | 121 | CC1C(=O)OC2C(O)C34C5CC(C(C)(C)C)C36C(OC(=O)C6OCc3ccc(C(F)(F)F)cc3)OC4(C(=O)O5)C12O (stereo not drawn) [Example 94, 10-(4'-trifluoromethylbenzyloxy)-Ginkgolide B]
31 | 52.1 | CCCCc1ccc(COC2C(=O)OC3OC45C(=O)OC6CC(C(C)(C)C)C32C64C(O)C2OC(=O)C(C)C25O)nc1 (stereo not drawn) [Example 100, 10-(5-butyl-2-pyridinyl)-methoxy-Ginkgolide B]
32 | 131 | CC1C(=O)OC2C(O)C34C5CC(C(C)(C)C)C36C(OC(=O)C6OCc3ccc6ccccc6n3)OC4(C(=O)O5)C12O (stereo not drawn) [Example 102, 10-(2-quinolinyl)-methoxy-Ginkgolide B]
33 | 32.5 | Cc1cnc(COC2C(=O)OC3OC45C(=O)OC6CC(C(C)(C)C)C32C64C(O)C2OC(=O)C(C)C25O)c(C)c1NC(=O)c1ccccc1 (stereo not drawn) [Example 105, 10-(4-benzoylamino-3,5-dimethyl-2-pyridinyl)-methoxy-Ginkgolide B]
34 | 47.1 | Cc1cnc(COC2C(=O)OC3OC45C(=O)OC6CC(C(C)(C)C)C32C64C(O)C2OC(=O)C(C)C25O)c(C)c1N(O)C(=O)c1ccccc1 (stereo not drawn) [Example 106, 10-(4-N-benzoyl-N-hydroxyamino-3,5-dimethyl-2-pyridinyl)-methoxy Ginkgolide B]

Same assay, conditions: Oryctolagus cuniculus, read-out: IC50, inhibition of PAF-induced rabbit platelet aggregation

Row | Compound | IC50 [nM]
35 | CC1C(=O)OC2C(O)C34C5CC(C(C)(C)C)C36C(OC(=O)C6OCc3ccc(I)cc3)OC4(C(=O)O5)C12O (stereo not drawn) [Example 5] | 50.1
36 | CC1C(=O)OC2C(O)C34C5CC(C(C)(C)C)C36C(OC(=O)C6OCc3ccc(OC(F)(F)F)cc3)OC4(C(=O)O5)C12O (stereo not drawn) [Example 24] | 42.1
37 | CC1C(=O)OC2C(O)C34C5CC(C(C)(C)C)C36C(OC(=O)C6OCc3ccc(O)c(O)c3)OC4(C(=O)O5)C12O (stereo not drawn) [Example 30] | 121
38 | CC1C(=O)OC2C(O)C34C5CC(C(C)(C)C)C36C(OC(=O)C6OCc3ccc([N+](=O)[O-])cc3)OC4(C(=O)O5)C12O (stereo not drawn) [Example 44] | 83.1
39 | CC1C(=O)OC2C(O)C34C5CC(C(C)(C)C)C36C(OC(=O)C6OCc3cccc([N+](=O)[O-])c3)OC4(C(=O)O5)C12O (stereo not drawn) [Example 63] | 62.7
40 | CC1C(=O)OC2C(O)C34C5CC(C(C)(C)C)C36C(OC(=O)C6OCc3ccc(N)cc3)OC4(C(=O)O5)C12O (stereo not drawn) [Example 75] | 116
41 | CC1C(=O)OC2C(O)C34C5CC(C(C)(C)C)C36C(OC(=O)C6OCc3c(F)c(F)c(F)c(F)c3F)OC4(C(=O)O5)C12O (stereo not drawn) [Example 83, 10-(2',3',4',5',6'-pentafluorobenzyloxy)-Ginkgolide B] | 71.7
42 | CC1C(=O)OC2C(O)C34C5CC(C(C)(C)C)C36C(OC(=O)C6OCc3ccc(F)cc3F)OC4(C(=O)O5)C12O (stereo not drawn) [Example 86, 10-(2',4'-difluorobenzyloxy)-Ginkgolide B] | 50.1
43 | CC1C(=O)OC2C(O)C34C5CC(C(C)(C)C)C36C(OC(=O)C6OCc3ccccc3F)OC4(C(=O)O5)C12O (stereo not drawn) [Example 87, 10-(2'-fluorobenzyloxy)-Ginkgolide B] | 107
44 | CC1C(=O)OC2C(O)C34C5CC(C(C)(C)C)C36C(OC(=O)C6OC(=O)c3ccccc3)OC4(C(=O)O5)C12O (stereo not drawn) [Example 88, 10-benzoyloxy-Ginkgolide B] | 48.2
45 | CC1C(=O)OC2C(O)C34C5CC(C(C)(C)C)C36C(OC(=O)C6OCCc3ccccn3)OC4(C(=O)O5)C12O (stereo not drawn) [Example 101, 10-(2-pyridinyl)-ethoxy-Ginkgolide B] | 102
